Consider four compounds from article PMC9088311, “Cyclic Thiosulfonates for Thiol-Mediated Uptake: Cascade Exchangers, Transporters, Inhibitors” (JACS Au, 2022).

A short description of the assay: Dynamic covalent ring opening with thiol 10, 1H NMR kinetics. The class given is physicochemical. The protocol:
The dynamic covalent opening of CTO 3 with thiols yields product 9 with a disulfide and a sulfinate (Figure 3B). Consistent with short chalcogen bonds found in silico, the opening of CTO 3 was instantaneous on an NMR timescale with most thiols. To decelerate ring opening, bulky thiols were considered in combination with lowered pH to deactivate the nucleophile. With N-Ac-D-penicillamine 10, the opening of 5 mM CTO 3 in phosphate buffer/DMSO-d6 9:1 was still immediate at pD 6.7 but became detectable in ^1H NMR spectroscopy kinetics under more acidic conditions. The ring-opening rate constants k^O were estimated by fitting the initial velocities to second-order kinetics. Only lower bound rates were approximated from the earliest determined substrate conversions when reactions were still too fast despite the unfavorable conditions. At pD 5.4, dynamic covalent ring opening of CTO 3 with equimolar tertiary thiol 10 occurred with k^O > 0.49 M^–1 s^–1 and equilibrated at K = 6.0 × 10^3 M^–1 (Table 1, entry 1, Figures S4 and S5). At pD 2.7, further deceleration to k^O = 0.10 M^–1 s^–1 shifted the equilibrium to K = 500 M^–1 (Table 1, entry 2, Figures S6 and S7). […] At equilibrium, the concentration of thiol 10 further decreased slowly due to oxidation into the homodimer (Figure 3C, diamonds).
Equilibrium constants for reactions with two reactants A and B and a product C are […]
3.1.1. Dynamic Covalent Ring Opening with Thiols
General procedure A (at 5 mM): To a solution of deuterated sodium phosphate (200 mM in D 2O, pD 2.7 or 5.4, 180 mM final concentration), a stock solution of substrate (0.10 M in DMSO-d6, 5.0 mM final concentration) was added and stirred. Then a stock solution of 10 (0.10 M in DMSO- d6, 5.0 mM final concentration) was added and vigorously stirred at room temperature. The solution was transferred immediately to an NMR tube and NMR data were recorded repeatedly. The concentration of the substrate or thiol at each time plot was calculated by comparing the integrals of the peaks indicated with arrows in the figures, and plotted. The data points were fitted to obtain k1 with the Equation (S6) or (S7) using Graphpad Prism.
General procedure B (at 2 mM): To a solution of deuterated sodium phosphate (200 mM in D 2O, pD 2.7 or 5.4, 180 mM final concentration), DMSO- d6 (10% DMSO- d6 in the reaction mixture) and a stock solution of substrate (0.10 M in DMSO- d6, 2.0 mM final concentration) were added and stirred. Then a stock solution of 10 (0.10 M in DMSO- d6, 2.0 mM final concentration) was added and vigorously stirred at room temperature. The solution was transferred immediately to an NMR tube and NMR data were recorded repeatedly. The concentration of the substrate or thiol at each time plot was calculated by comparing the integrals of the peaks indicated with arrows in the figures, and plotted. The data points were fitted to obtain k1 with the Equation (S6) or (S7) using Graphpad Prism.
General procedure C (for thiosulfinates): To a solution of deuterated sodium phosphate (200 mM in D 2O, pD 5.4, 170 mM final concentration), a stock solution of substrate (0.10 M in DMSO- d6, 5.0 mM final concentration) was added and stirred. Then a stock solution of 10 (0.10 M in DMSO- d6, 10 mM final concentration) was added and vigorously stirred at room […]
data points were fitted to obtain k1 with the Equation (S14) or (S16) using Graphpad Prism. […]
3.1.2. Dependence of Ring Opening on Proticity
A mixture of deuterated phosphoric acid and NaOD (30% in D 2O), which gave pD 2.7 in D2O, was used as buffer in all solvent mixtures. To a solution of deuterated sodium phosphate (20 mM final concentration) in a mixture of D 2O and DMSO- d6 (540 μL, final D 2O content: […]
concentration) was added and stirred. Then a stock solution of 10 (0.10 M in DMSO- d6, 5.0 mM final concentration) was added and vigorously stirred at room temperature. The solution was transferred immediately to an NMR tube and 1H NMR data were recorded repeatedly. […]

[1] abbreviates: equimolar 10, rt, pD 2.7, 90% D2O, Na+ phosphate 180 mM, substrate 2 mM.

Values joined by “and” are separate entries in the source; they are usually repeats but may differ in a detail not shown here. Equal entries are not always repeated.

`O=S1(=O)C[C@H](O)[C@H](O)CS1` (stereo in doubt) [Compound 3, (4S,5R)-4,5-dihydroxy-1,2-dithiane-1,1-dioxide]: the “k^O, rate constant of ring opening” value runs as follows: (equimolar 10, rt, pD 2.7, 90% D2O/DMSO-d6, Na+ phosphate 180 mM, substrate 5 mM) 0.10 M^–1 s^–1 and 0.10 ^i M^–1 s^–1; (estimated pD 2.7, Na+ phosphate 20 mM, 2% D2O, 5 mM) over 1.4 M^–1 s^–1; (estimated pD 2.7, Na+ phosphate 20 mM, 5% D2O, 5 mM) over 1.3 M^–1 s^–1; (estimated pD 2.7, Na+ phosphate 20 mM, 8% D2O, 5 mM) over 1.4 M^–1 s^–1; (estimated pD 2.7, Na+ phosphate 20 mM, 10% D2O, 5 mM) over 2.1 M^–1 s^–1; (estimated pD 2.7, Na+ phosphate 20 mM, 30% D2O, 5 mM) over 2.8 M^–1 s^–1. Also, the “k^O, rate constant of ring opening” value runs as follows: (estimated pD 2.7, Na+ phosphate 20 mM, 50% D2O, 5 mM) over 1.3 M^–1 s^–1; (estimated pD 2.7, Na+ phosphate 20 mM, 70% D2O, 5 mM) 0.28 ± 0.03 M^–1 s^–1 and 0.28 M^–1 s^–1; (estimated pD 2.7, Na+ phosphate 20 mM, 90% D2O, 5 mM) 0.15 ± 0.01 M^–1 s^–1 and 0.15 M^–1 s^–1. Besides, the “k^O, rate constant of ring opening (or equivalent for acyclic controls)” value (equimolar 10, rt, pD 5.4, 90% D2O/DMSO-d6, Na+ phosphate 180 mM, substrate 5 mM) is recorded as over 0.49 M^–1 s^–1. Also, the “krel^O, rate constant of ring opening relative to 3” value was found to be 1 (pD 2.7, 90% D2O, 5 mM) and 1 (pD 5.4, 90% D2O, 5 mM).

As to `[O-][S+]1C[C@@H](O)[C@@H](O)CS1` (some centres unmarked) [Compound 2], the “k^O, rate constant of ring opening (or equivalent for acyclic controls)” value (2 equiv of 10, rt, pD 5.4, 85% D2O, Na+ phosphate 170 mM, substrate 5 mM) turned out to be 0.001 M^–1 s^–1. Also, the “krel^O, rate constant of ring opening relative to 3” value (pD 5.4, 85% D2O, 5 mM, 2 equiv of 10) is recorded as under 0.002. For the same compound, the “ring opening/exchange slower than CTO 3 (fold)” value (with thiol 10, pD 5.4) was over 500 ×.

In the case of `O=C1O[C@H]2CSS(=O)(=O)C[C@H]2O1` [Compound 11], the “k^O, rate constant of ring opening (or equivalent for acyclic controls)” value under setting [1] was over 12 M^–1 s^–1. For the same compound, for the setting “pD 2.7, 90% D2O, 2 mM”, the “krel^O, rate constant of ring opening relative to 3” value is recorded as over 120. Further, the “ring opening faster than 3 (fold)” value (with thiol 10, pD 2.7) is listed as over 100 ×.

Regarding `O=S1(=O)C=C[C@@H](O)CS1` [Compound 12], under setting [1], the “k^O, rate constant of ring opening (or equivalent for acyclic controls)” value was over 6.1 M^–1 s^–1. For the same compound, the “krel^O, rate constant of ring opening relative to 3” value (pD 2.7, 90% D2O, 2 mM) is over 61.
